Source: patent US20250376471A1, “CRYSTALLINE FORMS OF 2-[3-[4-AMINO-3-(2-FLUORO-4-PHENOXY-PHENYL)PYRAZOLO[3,4-D]PYRIMIDIN-1-YL]PIPERIDINE-1-CARBONYL]-4-METHYL-4-[4-(OXETAN-3-YL)PIPERAZIN-1-YL]PENT-2-ENENITRILE” (Principia Biopharma Inc., priority 2022, published 2025)
Values after ≈ are worked out from the molar mass of the structure shown. Values joined by “and” are separate entries in the source; they are usually repeats but may differ in a detail not shown here. Equal entries are not always repeated.

Tests used:
[1] = Visual solubility of Form B crystal in common solvents at RT; assay type: physicochemical; settings: organic solvent or mixture, thermodynamic from solid, visually estimated
Text: The solubility was visually estimated in 12 common solvents at RT.

[2] = Comparative solubility in Milli-Q purified water (HPLC); settings: for pH: water, 24 hr
Protocol: (§1) Using the stock solution, a dilution series for the purpose of HPLC quantitation was generated according to the following Table 8.
First, a quantity of test sample was placed in a 2-dram vial equipped with stir bar. […] In the second step, Milli-Q water was added to the vial under stirring followed by measuring the pH of the resulting suspension/solution. […] In each case, the sample was filtered through a 0.2 μm filter. The resulting solution was appropriately diluted to fall within the calibrated concentration range on HPLC. The sampling was repeated in identical fashion after 3 hr and 24 hr. After the last sample was taken, the pH was recorded again. The dissolved sample was determined by converting the recorded area on HPLC to concentration in mg/mL using the established calibration equation.

[3] = Comparative solubility in aqueous buffers (HPLC); assay type: physicochemical
Protocol: as §1
Next, the second step of this modified procedure involved adding a buffer (5 mL) to the vial under stirring followed by measuring the pH of the resulting suspension. In case the pH drifted by more than 0.1 unit from the target pH, 10 μL aliquots of 1M NaOH (aq.) were used to readjust the pH to the original value. […] As above in 9.2, the samples were filtered through a 0.2 μm filter, and the resulting solution was appropriately diluted to fall within the calibrated concentration range on HPLC. The sampling was repeated in an identical fashion after 3 hr and 24 hr and after the last sample was taken, the pH was recorded again. The dissolved sample was determined by converting the recorded area on HPLC to concentration in mg/mL using the established calibration equation.

[4] = Comparative grinding study (XRPD pre- and post-grinding); assay type: physicochemical; settings: 40 mg ground at 30 Hz for 30 min with steel ball bearing
Protocol: The samples were each ground at 30 Hz for 30 min, then reanalyzed by XRPD.

[5] = Solubility of methyl paraben co-crystal in pH 4.5 and 6.8 buffer (HPLC); assay type: physicochemical
Protocol: The sample was suspended in 1.5 mL media for a maximum anticipated concentration of Ca. […] The resulting suspensions were then shaken at 25° C./750 rpm for 24 hr. After 1 hr, 3 hr and 24 hr of equilibration, 0.5 mL of sample was aliquoted, the appearance was noted, and the pH of the saturated solution was measured. Samples were then centrifuged at 13,400 rpm for 2 min. Supernatant was used for HPLC analysis. Samples suspended in pH 4.5 buffer were diluted 1:1 (1- and 3-hr samples) and 1:8 (24 hr samples) with pH 4.5 buffer. Samples suspended in pH 6.8 buffer were analyzed undiluted. […] Different volumes of the standard diluted and undiluted sample solutions were injected.

[6] = Hygroscopicity (GVS analysis) and solid-state properties of methyl paraben co-crystal; assay type: physicochemical
Text: The co-crystal is also readily prepared from anti-solvent addition and generates a good yield.

[7] = Compression study (XRPD pre- and post-compression); assay type: physicochemical; settings: 6 mm recess disc, 100 kg of pressure for 2 min
Protocol: The methyl paraben co-crystalline form of Compound (I) after drying in a vacuum oven was compressed into a 6 mm recess disc under 100 kg of pressure for 2 min.

[8] = Static storage analysis (XRPD pre- and post-storage); assay type: physicochemical; settings: stored for one week at 25° C. and 40° C.
Protocol: Samples of methyl paraben co-crystalline form of Compound (I) (Example 10), after drying in a vacuum oven were stored for one week at 25° C. and 40° C.

[9] = pH 4.5 buffer, 1 hour, 25° C., single sample

With CC(C)(C=C(C#N)C(=O)N1CCCC(n2nc(-c3ccc(Oc4ccccc4)cc3F)c3c(N)ncnc32)C1)N1CCN(C2COC2)CC1 (centres unmarked) [Compound (I) Form B, 2-[3-[4-amino-3-(2-fluoro-4-phenoxy-phenyl)pyrazolo[3,4-d]pyrimidin-1-yl]piperidine-1-carbonyl]-4-methyl-4-[4-(oxetan-3-yl)piperazin-1-yl]pent-2-enenitrile] the solubility at 15 min ([1]; 4-Methyl-2-pentanone (MIBK)) was 20 to 100 mg/mL (≈ 30 to 150 mM), the solubility at 15 min ([1]; Acetone) was over 100 mg/mL and the solubility at 15 min ([1]; Acetonitrile (MeCN)) was 20 to 100 mg/mL (≈ 30 to 150 mM). The solubility at 15 min ([1]; Cyclohexane) was under 20 mg/mL, the solubility at 15 min ([1]; Cyclohexanone) was 20 to 100 mg/mL (≈ 30 to 150 mM) and the solubility at 15 min ([1]; Dichloromethane (DCM)) was over 100 mg/mL. The solubility at 15 min ([1]; Dimethyl carbonate (DMC)) was 20 to 100 mg/mL (≈ 30 to 150 mM), the solubility at 15 min ([1]; Ethyl acetate (EtOAc)) was 20 to 100 mg/mL (≈ 30 to 150 mM) and the solubility at 15 min ([1]; Isopropyl ether (IPE)) was under 20 mg/mL. For the same compound, the solubility at 15 min ([1]; Tetrahydrofuran (THF)) was over 100 mg/mL, the solubility at 15 min ([1]; Toluene) was under 20 mg/mL and the solubility at 15 min ([1]; t-Butyl Methyl Ether (MTBE)) was under 20 mg/mL. For the same compound, the pH [2] was 7.8, the pH ([3]; 50 mM Acetate, 0 hr) was 4.5 and the pH ([3]; 50 mM Acetate, 24 hr) was 4.5. The solubility at 1 h ([3]; 50 mM acetate buffer, pH 4.5, aqueous buffer, thermodynamic from solid, 50 mM Acetate, 1 hr) was 1.7 mg/mL (≈ 2.55 mM) and the “solid form after grinding (XRPD)” value ([4]; listed as Form B crystalline form of Compound (I)) was “became amorphous after grinding”.

CC(C)(C=C(C#N)C(=O)N1CCCC(n2nc(-c3ccc(Oc4ccccc4)cc3F)c3c(N)ncnc32)C1)N1CCN(C2COC2)CC1 (centres unmarked) [Compound (I) amorphous, 2-[3-[4-amino-3-(2-fluoro-4-phenoxy-phenyl)pyrazolo[3,4-d]pyrimidin-1-yl]piperidine-1-carbonyl]-4-methyl-4-[4-(oxetan-3-yl)piperazin-1-yl]pent-2-enenitrile] showed a pH [2] of 8.3, a pH ([3]; 50 mM Acetate, 0 hr) of 4.5 and a pH ([3]; 50 mM Acetate, 24 hr) of 4.5.

For CC(C)(C=C(C#N)C(=O)N1CCCC(n2nc(-c3ccc(Oc4ccccc4)cc3F)c3c(N)ncnc32)C1)N1CCN(C2COC2)CC1.Cl (centres unmarked) [HCl salt, 2-[3-[4-amino-3-(2-fluoro-4-phenoxy-phenyl)pyrazolo[3,4-d]pyrimidin-1-yl]piperidine-1-carbonyl]-4-methyl-4-[4-(oxetan-3-yl)piperazin-1-yl]pent-2-enenitrile: HCl crystalline salt Form A], the “solubility as compared with amorphous form and Compound (I) Form B” value ([2]; Example 9, FIGS. 24A-C, water and buffers) was “significantly enhanced solubility”, the pH [2] was 4.0 and the pH ([3]; 50 mM Acetate, 0 hr) was 4.5. The pH ([3]; 50 mM Acetate, 24 hr) was 4.4.

In the case of CC(C)(C=C(C#N)C(=O)N1CCCC(n2nc(-c3ccc(Oc4ccccc4)cc3F)c3c(N)ncnc32)C1)N1CCN(C2COC2)CC1.O=C(O)/C=C\C(=O)O (centres unmarked) [Maleate, 2-[3-[4-amino-3-(2-fluoro-4-phenoxy-phenyl)pyrazolo[3,4-d]pyrimidin-1-yl]piperidine-1-carbonyl]-4-methyl-4-[4-(oxetan-3-yl)piperazin-1-yl]pent-2-enenitrile: maleate crystalline salt Form A], the pH [2] is reported as 3.5, the pH ([3]; 50 mM Acetate, 0 hr) is reported as 4.5 and the pH ([3]; 50 mM Acetate, 24 hr) is reported as 4.0. The pH ([3]; 100 mM Acetate, 0 hr) was 4.5 and the pH ([3]; 100 mM Acetate, 24 hr) was 4.5.

With CC(C)(C=C(C#N)C(=O)N1CCCC(n2nc(-c3ccc(Oc4ccccc4)cc3F)c3c(N)ncnc32)C1)N1CCN(C2COC2)CC1 (centres unmarked) [Methyl paraben co-crystal, 2-[3-[4-amino-3-(2-fluoro-4-phenoxy-phenyl)pyrazolo[3,4-d]pyrimidin-1-yl]piperidine-1-carbonyl]-4-methyl-4-[4-(oxetan-3-yl)piperazin-1-yl]pent-2-enenitrile] the solubility at 3 h ([5]; pH 4.5 buffer, 25 °C, pH 4.5, aqueous buffer, thermodynamic from solid, 3 hour, single sample) was 0.98 mg/mL, the solubility at 1 h ([5]; pH 4.5 buffer, 25 °C, pH 4.5, aqueous buffer, thermodynamic from solid, pH 4.5 buffer, 1 hour, 25° C., single sample, read-out: Solubility) was 0.65 mg/mL and the solubility at 1 h ([5]; pH 4.5 buffer, 25 °C, pH 4.5, aqueous buffer, thermodynamic from solid, pH 4.5 buffer, 1 hour, 25° C., read-out: Average Solubility) was 0.65 mg/mL. For the same compound, the Solubility [5, 9] was 0.64 mg/mL, the pH [5, 9] was 4.6 and the pH ([5]; pH 4.5 buffer, 3 hour, 25° C., single sample) was 4.7 and 4.6. The pH ([5]; pH 4.5 buffer, 24 hour, 25° C., single sample) was 4.7, the pH ([5]; pH 6.8 buffer, 1 hour, 25° C., single sample) was 6.8 and the pH ([5]; pH 6.8 buffer, 3 hour, 25° C., single sample) was 6.8. The pH ([5]; pH 6.8 buffer, 24 hour, 25° C., single sample) was 6.9 and 6.8, the “XRPD pattern post-solubility analysis” value ([5]; solid form stability after solubility test) was “no change in the pattern” and the “water absorbed (hygroscopicity)” value ([6]; between 0 and 90% RH) was 2.3 % w/w. For the same compound, the “XRPD pattern after GVS analysis, static storage conditions, grinding and compression studies, and kinetic solubility analysis” value ([6]; solid form stability) was “remained the same XRPD pattern”, the “solid form after grinding (XRPD)” value [4] was “retained its co-crystalline structure pattern with only a limited reduction in overall crystallinity” and the “solid form after drying and compression (XRPD)” value [7] was “retained its co-crystalline structure pattern with only a limited reduction in overall crystallinity”. For the same compound, the “solid form after storage (XRPD)” value [8] was “retained its crystalline structure”.

For CC(C)(C=C(C#N)C(=O)N1CCCC(n2nc(-c3ccc(Oc4ccccc4)cc3F)c3c(N)ncnc32)C1)N1CCN(C2COC2)CC1.O=C(O)C(=O)O (centres unmarked) [Oxalate salt, 2-[3-[4-amino-3-(2-fluoro-4-phenoxy-phenyl)pyrazolo[3,4-d]pyrimidin-1-yl]piperidine-1-carbonyl]-4-methyl-4-[4-(oxetan-3-yl)piperazin-1-yl]pent-2-enenitrile: oxalate crystalline salt hydrate Form A], the pH [2] was 2.9, the pH ([3]; 50 mM Acetate, 0 hr) was 4.5 and the pH ([3]; 50 mM Acetate, 24 hr) was 4.27. For the same compound, the pH ([3]; 100 mM Acetate, 0 hr) was 4.5 and the pH ([3]; 100 mM Acetate, 24 hr) was 4.5.
